Measured values taken from the supplement of paper PMC10331698.
± gives the standard deviation of the averaged measurements.

Legend:
Experiment in all cases: level (log10 ratio to DMSO vehicle control); higher = higher biomarker level / cell amount than vehicle control
Details in all cases: in DMSO
[1] = compound: O=C(O)C(F)(F)OC(F)(F)C(F)(F)OC(F)(F)C(=O)O [Perfluoro-3,6-dioxaoctane-1,8-dioic acid]
Procedure: (§1)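 BioMAP Diversity Plus panel of 12 human primary cell co-culture systems (3C, 4H, LPS, SAg, BT, BF4T, BE3C, CASM3C, HDF3CGF, KF3CT, MyoF, Mphg). Compounds were added 1 h before stimulation and left for 24 h (MyoF 48 h; BT 72 h for soluble read-outs or 6 d for IgG). Biomarkers were read by ELISA, cytotoxicity by SRB, PBMC viability and proliferation by Alamar Blue. Each well value was divided by the mean of 8 DMSO control wells on the same plate and log10 transformed; duplicate blinded samples were tested at 4 concentrations.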

[2] = compound: C=CC(F)(F)C(F)(F)C(F)(F)C(F)(F)C(F)(F)C(F)(F)C(F)(F)C(F)(F)C=C [1,8-Divinylperfluorooctane]
Procedure: as §1

[3] = compound: FC(F)C(F)(F)COCC1CO1 [((2,2,3,3-Tetrafluoropropoxy)methyl)oxirane]
Procedure: as §1

[4] = compound: COC(=O)CCC(F)(F)C(F)(F)C(F)(F)C(F)(F)F [Methyl 2H,2H,3H,3H-perfluoroheptanoate]
Procedure: as §1

Perfluoropropanoic acid = compound: O=C(O)C(F)(F)C(F)(F)F [Perfluoropropanoic acid]
Procedure: as §1

[5] = compound: OCC(F)(F)OC(F)(F)C(F)(F)OC(F)(F)CO [1H,1H,8H,8H-Perfluoro-3,6-dioxaoctane-1,8-diol]
Procedure: as §1

Row | Test System | level (log10) ([1]; 6700 nM) | level (log10) ([1]; 20000 nM) | level (log10) ([1]; 60000 nM) | level (log10) ([2]; 6700 nM) | level (log10) ([2]; 20000 nM) | level (log10) ([3]; 6700 nM) | level (log10) ([3]; 20000 nM) | level (log10) ([3]; 60000 nM) | level (log10) ([4]; 6700 nM) | level (log10) ([4]; 20000 nM) | level (log10) ([4]; 60000 nM) | level (log10) (Perfluoropropanoic acid; 6700 nM) | level (log10) (Perfluoropropanoic acid; 20000 nM) | level (log10) (Perfluoropropanoic acid; 60000 nM) | level (log10) ([5]; 6700 nM) | level (log10) ([5]; 20000 nM) | level (log10) ([5]; 60000 nM)
1 | 3C:CCL2/MCP-1 | 0.002 ± 0.016 | -0.007 ± 0.023 | 0.01 ± 0.03 | -0.0055 ± 0.0021 | 0.031 ± 0.025 | 0.0045 ± 0.025 | 0.016 ± 0.028 | 0.0215 ± 0.042 | 0.011 ± 0.0085 | 0.007 ± 0.013 | 0.0285 ± 0.028 | -0.041 ± 0.048 | -0.0145 ± 0.049 | 0.0435 ± 0.073 | 0.0005 ± 0.018 | 0.009 ± 0.0028 | 0.0145 ± 0.05
2 | 3C:CD54/ICAM-1 | -0.0005 ± 0.0092 | -0.019 ± 0.0085 | -0.0135 ± 0.0035 | -0.0005 ± 0.0064 | 0.0095 ± 0.0021 | -0.008 ± 0.034 | -0.017 ± 0.025 | -0.002 ± 0.0099 | -0.0175 ± 0.0078 | -0.017 | 0.002 ± 0.017 | -0.0365 ± 0.012 | -0.0085 ± 0.0064 | 0.017 ± 0.02 | -0.0015 ± 0.016 | -0.0005 ± 0.0064 | -0.0035 ± 0.011
3 | 3C:CD62E/E-Selectin | 0.0015 ± 0.029 | -0.0185 ± 0.0092 | -0.005 ± 0.02 | -0.0305 ± 0.025 | -0.014 ± 0.024 | 0.0085 ± 0.0021 | 0.0105 ± 0.03 | 0.003 ± 0.047 | -0.037 ± 0.0071 | -0.012 ± 0.013 | 0.0005 ± 0.022 | -0.01 ± 0.013 | -0.005 ± 0.0085 | 0.0105 ± 0.013 | 0.0085 ± 0.0035 | 0.003 | -0.003 ± 0.0085
4 | 3C:CD106/VCAM-1 | 0.0105 ± 0.016 | -0.002 ± 0.02 | 0.0015 ± 0.0064 | -0.018 ± 0.017 | -0.003 ± 0.011 | -0.0005 ± 0.0092 | -0.0225 ± 0.023 | -0.0125 ± 0.011 | -0.0175 ± 0.028 | -0.0125 ± 0.013 | 0.0065 ± 0.005 | -0.025 ± 0.0014 | -0.0145 ± 0.005 | 0.004 ± 0.0014 | -0.0365 ± 0.021 | -0.0295 ± 0.019 | -0.016 ± 0.024
5 | 3C:CD141/Thrombomodulin | -0.0265 ± 0.036 | -0.0065 ± 0.023 | 0.0095 ± 0.028 | -0.0215 ± 0.022 | -0.0055 ± 0.023 | -0.007 ± 0.0085 | -0.0185 ± 0.049 | -0.0145 ± 0.039 | -0.0355 ± 0.032 | -0.017 ± 0.0042 | -0.0225 ± 0.013 | -0.016 ± 0.031 | 0.011 ± 0.021 | 0.0155 ± 0.0035 | -0.003 ± 0.013 | -0.0075 ± 0.015 | 0.01 ± 0.0085
6 | 3C:CD142/Tissue Factor | -0.004 ± 0.042 | -0.0155 ± 0.013 | -0.0025 ± 0.059 | -0.068 ± 0.041 | -0.0205 ± 0.061 | -0.0175 ± 0.07 | -0.032 ± 0.05 | -0.036 ± 0.071 | -0.0115 ± 0.066 | -0.038 ± 0.021 | -0.0005 ± 0.026 | -0.008 ± 0.018 | -0.015 ± 0.0085 | 0.0065 ± 0.0035 | 0.0175 ± 0.0064 | 0.011 ± 0.021 | -0.0045 ± 0.0035
7 | BE3C:Keratin 8/18 | -0.0105 ± 0.0092 | -0.004 ± 0.0014 | 0.0005 ± 0.022 | 0.0015 ± 0.005 | -0.0165 ± 0.005 | -0.004 ± 0.0071 | -0.019 ± 0.031 | -0.0045 ± 0.0021 | -0.0225 ± 0.005 | 0.0015 ± 0.015 | -0.0165 ± 0.018 | -0.0185 ± 0.0064 | -0.016 ± 0.028 | 0.017 ± 0.023 | -0.0105 ± 0.0078 | -0.003 ± 0.016 | -0.0085 ± 0.013
8 | BE3C:MMP-1 | -0.0085 ± 0.029 | -0.023 ± 0.047 | 0.011 ± 0.025 | 0.0095 ± 0.069 | 0.0345 ± 0.0092 | -0.013 ± 0.02 | -0.0335 ± 0.019 | -0.0185 ± 0.0078 | 0.0035 ± 0.052 | 0.004 ± 0.045 | 0.03 ± 0.1 | -0.02 ± 0.041 | 0.001 ± 0.0014 | 0.03 ± 0.064 | 0.0105 ± 0.011 | -0.013 ± 0.021 | 0.009 ± 0.052
9 | BE3C:MMP-9 | -0.0115 ± 0.0078 | -0.0035 ± 0.028 | 0.0385 ± 0.00071 | -0.0165 ± 0.011 | -0.0165 ± 0.012 | -0.0135 ± 0.015 | -0.03 ± 0.028 | -0.005 ± 0.0028 | -0.001 ± 0.011 | -0.0065 ± 0.023 | -0.0155 ± 0.013 | 0.0075 ± 0.025 | 0.0025 ± 0.018 | 0.0265 ± 0.012 | -0.0115 ± 0.028 | 0.02 ± 0.04 | -0.006 ± 0.013
10 | BE3C:PAI-I | -0.013 ± 0.0042 | -0.0105 ± 0.019 | 0.0065 ± 0.022 | 0.016 ± 0.017 | 0.016 ± 0.016 | -0.0145 ± 0.028 | -0.015 ± 0.034 | -0.011 ± 0.018 | -0.0065 ± 0.025 | -0.006 ± 0.044 | -0.0055 ± 0.005 | -0.029 ± 0.045 | -0.0065 ± 0.057 | 0.017 ± 0.052 | -0.0105 ± 0.005 | -0.0235 ± 0.0092 | 0.01 ± 0.021
11 | BE3C:SRB | -0.0005 ± 0.0021 | -0.0035 ± 0.0021 | 0.0025 ± 0.011 | -0.0005 ± 0.00071 | 0 ± 0.0014 | -0.0015 ± 0.005 | -0.001 ± 0.0014 | 0.0085 ± 0.023 | -0.004 ± 0.0028 | -0.0015 ± 0.0021 | 0.002 | -0.0015 ± 0.0021 | -0.003 | 0.0035 ± 0.00071 | -0.005 ± 0.0085 | -0.0015 ± 0.0064 | -0.0045 ± 0.012
12 | BE3C:tPA | -0.014 ± 0.018 | -0.0135 ± 0.0035 | -0.0015 ± 0.0021 | -0.0145 ± 0.0021 | -0.0015 ± 0.015 | -0.006 ± 0.031 | -0.015 ± 0.024 | -0.0165 ± 0.00071 | -0.006 ± 0.02 | -0.016 ± 0.014 | 0.0005 ± 0.0078 | -0.016 ± 0.0042 | -0.028 ± 0.028 | 0 ± 0.0014 | -0.014 ± 0.021 | -0.0255 ± 0.03 | -0.0225 ± 0.00071
13 | BE3C:uPA | -0.0145 ± 0.005 | -0.013 ± 0.014 | -0.0025 ± 0.0064 | -0.0245 ± 0.0064 | -0.0315 ± 0.0078 | -0.0105 ± 0.025 | -0.021 ± 0.035 | -0.004 ± 0.025 | -0.013 ± 0.042 | -0.0155 ± 0.018 | -0.0155 ± 0.012 | -0.0165 ± 0.044 | 0.0015 ± 0.044 | 0.003 ± 0.041 | -0.01 ± 0.0042 | 0 ± 0.037 | -0.016 ± 0.0057
14 | CASM3C:CCL2/MCP-1 | -0.033 ± 0.037 | -0.034 ± 0.027 | 0.021 ± 0.02 | -0.0225 ± 0.0078 | 0.002 ± 0.014 | -0.001 ± 0.0028 | -0.0105 ± 0.012 | 0.021 ± 0.075 | -0.0075 ± 0.011 | -0.003 ± 0.0071 | 0.004 ± 0.03 | 0.0025 ± 0.012 | -0.0025 ± 0.019 | 0.0055 ± 0.00071 | -0.026 ± 0.041 | -0.022 ± 0.017 | -0.017 ± 0.013
